Test results from patent US6221866A, “Indanyl-substituted benzenecarboxamides, processes for their preparation, their use as a medicament, and pharmaceutical formulations containing them” (priority 1999, dated 2001).

Key:
Kv1.5 channel = conditions: described in the literature, side effect alongside other principal effects; cited from earlier work
[1] = test system: fast-activating potassium channel IKr; conditions: human ventricle and atrium cells; cited from earlier work
Human Kv1.5 channels = molecular target: T1, Human Kv1.5 channels (Homo sapiens, UniProt P22460); test: Inhibition of human Kv1.5 current expressed in Xenopus oocytes (two microelectrode voltage clamp); assay type: cell-based; conditions: human Kv1.5 expressed in Xenopus oocytes; voltage jumps to 0 mV and 40 mV, 500 ms; RT; pH 7.4; Hill equation
T1 construct: expressed in transfected cells; host or cells: Xenopus laevis oocytes injected with Kv1.5-coding RNA synthesized in vitro
T1 sequence (P22460 whole entry): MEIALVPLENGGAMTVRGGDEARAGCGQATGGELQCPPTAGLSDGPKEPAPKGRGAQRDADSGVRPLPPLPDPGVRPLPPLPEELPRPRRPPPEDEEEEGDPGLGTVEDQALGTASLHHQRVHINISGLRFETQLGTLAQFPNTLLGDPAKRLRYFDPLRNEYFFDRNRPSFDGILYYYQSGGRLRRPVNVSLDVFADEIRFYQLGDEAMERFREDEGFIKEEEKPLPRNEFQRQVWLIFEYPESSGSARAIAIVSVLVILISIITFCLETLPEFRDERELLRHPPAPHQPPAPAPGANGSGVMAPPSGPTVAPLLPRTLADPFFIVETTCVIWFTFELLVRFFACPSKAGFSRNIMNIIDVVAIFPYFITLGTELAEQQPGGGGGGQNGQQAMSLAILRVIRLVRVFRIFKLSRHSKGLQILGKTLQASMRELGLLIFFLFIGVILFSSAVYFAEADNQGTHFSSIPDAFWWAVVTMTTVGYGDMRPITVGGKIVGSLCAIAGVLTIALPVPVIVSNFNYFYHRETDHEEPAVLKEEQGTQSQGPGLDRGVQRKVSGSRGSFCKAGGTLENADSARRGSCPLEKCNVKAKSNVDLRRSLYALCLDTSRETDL
Experimental: Human Kv1.5 channels were expressed in Xenopus oocytes. For this purpose, oocytes were first isolated from Xenopus laevis and were defolliculated. Kv1.5-coding RNA synthesized in vitro was then injected into these oocytes. After Kv1.5 protein expression for 1-7 days, Kv1.5 currents were measured on the oocytes by the two microelectrode voltage clamp technique. Here, the Kv1.5 channels were activated as a rule with voltage jumps to 0 mV and 40 mV, lasting for 500 ms. The bath was flushed with a solution of the following composition: 96 mM NACl, 2 mM KCl, 1.8 mM CaCl2, 1 mM MgCl2, and 5 mM HEPES (tritrated with NaOH to pH 7.4). These experiments were carried out at RT. The following were used for data acquisition and analysis: Geneclamp amplifier (Axon Instruments, Foster City, USA) and MacLab D/A converter and software (ADinstruments, Castle Hill, Australia). The substances according to the invention were tested by adding them in different concentrations to the bath solution. The effects of the substances were calculated as percentage inhibition of the Kv1.5 control current obtained when no substance was added to the solution. The data were then extrapolated using the Hill equation, in order to determine the inhibitory concentration (IC50) for the respective substances.

SMILES | IC50 (Human Kv1.5 channels) [µM] | further results
CCCCN1CCCCC1C(=O)Nc1c(C)cccc1C (centres unmarked) [Bupivacaine] |  | blocking effect on the Kv1.5 channel (in words) (Kv1.5 channel): blocking effect on the Kv1.5 channel
CN(CCOc1ccc(NS(C)(=O)=O)cc1)CCc1ccc(NS(C)(=O)=O)cc1 [Dofetilide] |  | block of IKr (in words) [1]: predominantly or exclusively block the fast-activating potassium channel IKr
NS(=O)(=O)c1cc(C(=O)NC2CCc3ccccc32)ccc1Cl (centres unmarked) [Example 1] | > 10 | 
CCCCNS(=O)(=O)c1cc(C(=O)NC2CCc3ccccc32)ccc1Cl (centres unmarked) [Example 3] | 7.7 | 
CC(C)CNS(=O)(=O)c1cc(C(=O)NC2CCc3ccccc32)c(Cl)cc1Cl (centres unmarked) [Example 10] | 4.8 | 
CC(C)CCNS(=O)(=O)c1cc(C(=O)NC2CCc3ccccc32)c(Cl)cc1Cl (centres unmarked) [Example 11] | 2.8 | 
O=C(NC1CCc2ccccc21)c1cc(S(=O)(=O)NC2CCCCC2)c(Cl)cc1Cl (centres unmarked) [Example 13] | 3.9 | 
O=C(NC1CCc2ccccc21)c1cc(S(=O)(=O)NC2CCC2)c(Cl)cc1Cl (centres unmarked) [Example 14] | 4.2 | 
CC(C)CCNS(=O)(=O)c1cc(C(=O)N[C@@H]2CCc3ccccc32)c(Cl)cc1Cl [Example 19] | ~3 | 
CC(C)CCNS(=O)(=O)c1cc(C(=O)N[C@H]2CCc3ccccc32)c(Cl)cc1Cl [Example 20] | ~3 | 
Cc1ccc(S(=O)(=O)NCCC(C)C)cc1C(=O)NC1CCc2ccccc21 (centres unmarked) [Example 43] | 5.3 | 
Cc1ccc(S(=O)(=O)NC2CCCCC2)cc1C(=O)NC1CCc2ccccc21 (centres unmarked) [Example 51] | 7.1 | 
Cc1cc(C)c(S(=O)(=O)NCCC(C)C)cc1C(=O)NC1CCc2ccccc21 (centres unmarked) [Example 57] | 8.8 | 
Cc1cc(S(=O)(=O)NCCC(C)C)cc(C(=O)NC2CCc3ccccc32)c1C (centres unmarked) [Example 60] | 6.9 | 
O=C(NC1CCc2ccccc21)c1cc(S(=O)(=O)Nc2ccccc2)ccc1Cl (centres unmarked) [Example 62] | 6.3 | 
O=C(NC1CCc2ccccc21)c1cc(S(=O)(=O)NC2CCCCC2)c(F)cc1Cl (centres unmarked) [Example 73] | 6.2 | 
COc1ccc2c(c1)C(NC(=O)c1ccc(Cl)c(S(=O)(=O)NCCC(C)C)c1)CC2 (centres unmarked) [Example 88] | 8.7 | 
COc1cc2c(cc1OC)C(NC(=O)c1ccc(Cl)c(S(=O)(=O)NCCC(C)C)c1)CC2 (centres unmarked) [Example 89] | 5.6 | 
COc1ccc(NS(=O)(=O)c2cc(C(=O)NC3CCc4ccccc43)c(Cl)cc2F)cc1 (centres unmarked) [Example 90] | 2.8 | 
CN(C(=O)c1cc(S(=O)(=O)NC2CCCCC2)ccc1Cl)C1CCc2ccccc21 (centres unmarked) [Example 94] | 2.2 | 
O=C1NCCN1CCN1CCC(c2cn(-c3ccc(F)cc3)c3ccc(Cl)cc23)CC1 [Sertindole] |  | blocking effect on the Kv1.5 channel (in words) (Kv1.5 channel): blocking effect on the Kv1.5 channel
C1CCC2(C1)C1CN(CC3CC3)CC2CN(CC2CC2)C1 [Tedisamil] |  | blocking effect on the Kv1.5 channel (in words) (Kv1.5 channel): blocking effect on the Kv1.5 channel
CC(C)NC[C@@H](O)c1ccc(NS(C)(=O)=O)cc1 [d-Sotalol] |  | block of IKr (in words) [1]: predominantly or exclusively block the fast-activating potassium channel IKr
